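Compound exposure: 48 hours, 5 concentrations, 96-well plates. The concentration for full growth arrest is given as TGI.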
Key:
Assay in all cases: inhibition of tumour cell growth, NCI panel, 48 h
SK-OV-3 ovarian = system: SK-OV-3 ovarian
OVCAR-5 ovarian = system: OVCAR-5 ovarian
K-562 leukemia = system: K-562 leukemia
786-0 renal = system: 786-0 renal
ACHN renal = system: ACHN renal
UACC-257 melanoma = system: UACC-257 melanoma
OVCAR-8 ovarian = system: OVCAR-8 ovarian
NCI/ADR-RES ovarian = system: NCI/ADR-RES ovarian
OVCAR-3 ovarian = system: OVCAR-3 ovarian
COLO 205 colon = system: COLO 205 colon
HCC-2998 colon = system: HCC-2998 colon
UACC-62 melanoma = system: UACC-62 melanoma
NCI-H522 lung = system: NCI-H522 lung
RXF 393 renal = system: RXF 393 renal
MDA-MB-435 = system: MDA-MB-435
HS 578T breast = system: HS 578T breast
U251 CNS = system: U251 CNS
HOP-62 NSCLC = system: HOP-62 NSCLC
DU-145 prostate = system: DU-145 prostate
HCT-15 colon = system: HCT-15 colon
NCI-H460 lung = system: NCI-H460 lung
HL-60(TB) leukemia = system: HL-60(TB) leukemia
MCF7 breast = system: MCF7 breast
SR leukemia = system: SR leukemia
MDA-MB-231 breast = system: MDA-MB-231 breast
SF-295 CNS = system: SF-295 CNS
SK-MEL-2 melanoma = system: SK-MEL-2 melanoma
SF-268 CNS = system: SF-268 CNS
UO-31 renal = system: UO-31 renal
HT29 colon = system: HT29 colon
SN12C renal = system: SN12C renal
MDA-N = system: MDA-N
LOX IMVI melanoma = system: LOX IMVI melanoma
SW-620 colon = system: SW-620 colon
HCT-116 colon = system: HCT-116 colon
SF-539 CNS = system: SF-539 CNS
SNB-75 CNS = system: SNB-75 CNS
EKVX NSCLC = system: EKVX NSCLC
TK-10 renal = system: TK-10 renal
OVCAR-4 ovarian = system: OVCAR-4 ovarian
NCI-H226 lung = system: NCI-H226 lung
IGROV1 ovarian = system: IGROV1 ovarian
MOLT-4 leukemia = system: MOLT-4 leukemia
KM12 colon = system: KM12 colon
SNB-19 CNS = system: SNB-19 CNS
A498 renal = system: A498 renal
PC-3 prostate = system: PC-3 prostate
SK-MEL-28 melanoma = system: SK-MEL-28 melanoma
BT-549 breast = system: BT-549 breast
T-47D breast = system: T-47D breast
A549 NSCLC = system: A549 NSCLC
SK-MEL-5 melanoma = system: SK-MEL-5 melanoma
M14 melanoma = system: M14 melanoma
MALME-3M melanoma = system: MALME-3M melanoma
NCI-H23 lung = system: NCI-H23 lung
CAKI-1 renal = system: CAKI-1 renal
CCRF-CEM leukemia = system: CCRF-CEM leukemia
HOP-92 NSCLC = system: HOP-92 NSCLC
RPMI-8226 leukemia = system: RPMI-8226 leukemia

**Q.** Which TGI (SK-OV-3 ovarian) does the source give for `CN1CN(c2ccccc2)C2(CCN(CCCSc3ccccc3NC(=O)/C=C/c3ccccc3)CC2)C1=O` here?
**A.** > 42.3 µM

**Q.** What about the TGI (OVCAR-5 ovarian) of the same molecule?
**A.** > 60.5 µM

**Q.** And the TGI (K-562 leukemia)?
**A.** 15.6 µM

**Q.** And the TGI (786-0 renal)?
**A.** 29.9 µM

**Q.** What about the TGI (ACHN renal) of the same molecule?
**A.** 9.81 µM

**Q.** What about the TGI (UACC-257 melanoma) of the same molecule?
**A.** 3.34 µM

**Q.** And the TGI (OVCAR-8 ovarian)?
**A.** 32.6 µM

**Q.** And the TGI (NCI/ADR-RES ovarian)?
**A.** 22.4 µM

**Q.** And the TGI (OVCAR-3 ovarian)?
**A.** 13.3 µM

**Q.** And the TGI (COLO 205 colon)?
**A.** 4.53 µM

**Q.** And the TGI (HCC-2998 colon)?
**A.** 20.6 µM

**Q.** And the TGI (UACC-62 melanoma)?
**A.** 6.37 µM

**Q.** What about the TGI (NCI-H522 lung) of the same molecule?
**A.** 62.4 µM

**Q.** And the TGI (RXF 393 renal)?
**A.** 31.9 µM

**Q.** And the TGI (MDA-MB-435)?
**A.** 6.91 µM

**Q.** And the TGI (HS 578T breast)?
**A.** 15 µM

**Q.** And the TGI (U251 CNS)?
**A.** 22.5 µM

**Q.** What about the TGI (HOP-62 NSCLC) of the same molecule?
**A.** 5.8 µM

**Q.** And the TGI (DU-145 prostate)?
**A.** 18.2 µM

**Q.** What about the TGI (HCT-15 colon) of the same molecule?
**A.** 26.5 µM

**Q.** And the TGI (NCI-H460 lung)?
**A.** 14.8 µM

**Q.** And the TGI (HL-60(TB) leukemia)?
**A.** 23.8 µM

**Q.** And the TGI (MCF7 breast)?
**A.** > 49.8 µM

**Q.** What about the TGI (SR leukemia) of the same molecule?
**A.** 12.3 µM

**Q.** What about the TGI (MDA-MB-231 breast) of the same molecule?
**A.** 3.32 µM

**Q.** What about the TGI (SF-295 CNS) of the same molecule?
**A.** 7.95 µM

**Q.** What about the TGI (SK-MEL-2 melanoma) of the same molecule?
**A.** 6.12 µM

**Q.** And the TGI (SF-268 CNS)?
**A.** > 46 µM

**Q.** And the TGI (UO-31 renal)?
**A.** 14.1 µM

**Q.** And the TGI (HT29 colon)?
**A.** 5.75 µM

**Q.** What about the TGI (SN12C renal) of the same molecule?
**A.** 15.1 µM

**Q.** And the TGI (MDA-N)?
**A.** 6.33 µM

**Q.** What about the TGI (LOX IMVI melanoma) of the same molecule?
**A.** 4.61 µM

**Q.** What about the TGI (SW-620 colon) of the same molecule?
**A.** 26.3 µM

**Q.** What about the TGI (HCT-116 colon) of the same molecule?
**A.** 8.76 µM

**Q.** What about the TGI (SF-539 CNS) of the same molecule?
**A.** 6.45 µM

**Q.** And the TGI (SNB-75 CNS)?
**A.** 22.8 µM

**Q.** What about the TGI (EKVX NSCLC) of the same molecule?
**A.** 44.5 µM

**Q.** What about the TGI (TK-10 renal) of the same molecule?
**A.** 34.4 µM

**Q.** And the TGI (OVCAR-4 ovarian)?
**A.** > 37 µM

**Q.** What about the TGI (NCI-H226 lung) of the same molecule?
**A.** 5.56 µM

**Q.** And the TGI (IGROV1 ovarian)?
**A.** 6.61 µM

**Q.** And the TGI (MOLT-4 leukemia)?
**A.** 7 µM

**Q.** And the TGI (KM12 colon)?
**A.** 17.9 µM

**Q.** And the TGI (SNB-19 CNS)?
**A.** 25.1 µM

**Q.** What about the TGI (A498 renal) of the same molecule?
**A.** 6.98 µM

**Q.** What about the TGI (PC-3 prostate) of the same molecule?
**A.** 23.5 µM

**Q.** And the TGI (SK-MEL-28 melanoma)?
**A.** 6.09 µM

**Q.** And the TGI (BT-549 breast)?
**A.** 12 µM

**Q.** What about the TGI (T-47D breast) of the same molecule?
**A.** > 59.7 µM

**Q.** What about the TGI (A549 NSCLC) of the same molecule?
**A.** > 87.3 µM

**Q.** What about the TGI (SK-MEL-5 melanoma) of the same molecule?
**A.** 9.18 µM

**Q.** What about the TGI (M14 melanoma) of the same molecule?
**A.** 3.89 µM

**Q.** What about the TGI (MALME-3M melanoma) of the same molecule?
**A.** 4.77 µM

**Q.** What about the TGI (NCI-H23 lung) of the same molecule?
**A.** 25.1 µM

**Q.** What about the TGI (CAKI-1 renal) of the same molecule?
**A.** > 26.5 µM

**Q.** What about the TGI (CCRF-CEM leukemia) of the same molecule?
**A.** > 100 µM

**Q.** Which results are given for `COC(=O)C(O)P(=O)(OC)OC` (stereo not given)?
**A.** TGI (SK-OV-3 ovarian): > 100 µM; TGI (OVCAR-5 ovarian): > 100 µM; TGI (K-562 leukemia): > 100 µM; TGI (786-0 renal): > 100 µM; TGI (ACHN renal): > 100 µM; TGI (UACC-257 melanoma): > 100 µM; TGI (OVCAR-8 ovarian): > 100 µM; TGI (NCI/ADR-RES ovarian): > 100 µM; TGI (OVCAR-3 ovarian): > 100 µM; TGI (COLO 205 colon): > 100 µM; TGI (UACC-62 melanoma): > 100 µM; TGI (NCI-H522 lung): > 100 µM; TGI (RXF 393 renal): > 100 µM; TGI (MDA-MB-435): > 100 µM; TGI (HS 578T breast): > 100 µM; TGI (U251 CNS): > 100 µM; TGI (HOP-62 NSCLC): > 100 µM; TGI (DU-145 prostate): > 100 µM; TGI (HCT-15 colon): > 100 µM; TGI (HL-60(TB) leukemia): > 100 µM; TGI (HOP-92 NSCLC): > 100 µM; TGI (MCF7 breast): > 100 µM; TGI (SR leukemia): > 100 µM; TGI (MDA-MB-231 breast): > 100 µM; TGI (SF-295 CNS): > 100 µM; TGI (SK-MEL-2 melanoma): > 100 µM; TGI (SF-268 CNS): > 100 µM; TGI (UO-31 renal): > 100 µM; TGI (HT29 colon): > 100 µM; TGI (SN12C renal): > 100 µM; TGI (MDA-N): > 100 µM; TGI (LOX IMVI melanoma): > 100 µM; TGI (SW-620 colon): > 100 µM; TGI (HCT-116 colon): > 100 µM; TGI (RPMI-8226 leukemia): > 100 µM; TGI (EKVX NSCLC): > 100 µM; TGI (OVCAR-4 ovarian): > 100 µM; TGI (NCI-H226 lung): > 100 µM; TGI (IGROV1 ovarian): > 100 µM; TGI (MOLT-4 leukemia): > 100 µM; TGI (KM12 colon): > 100 µM; TGI (SNB-19 CNS): > 100 µM; TGI (A498 renal): > 100 µM; TGI (PC-3 prostate): > 100 µM; TGI (SK-MEL-28 melanoma): > 100 µM; TGI (BT-549 breast): > 100 µM; TGI (T-47D breast): > 100 µM; TGI (A549 NSCLC): > 100 µM; TGI (SK-MEL-5 melanoma): > 100 µM; TGI (M14 melanoma): > 100 µM; TGI (MALME-3M melanoma): > 100 µM; TGI (NCI-H23 lung): > 100 µM; TGI (CAKI-1 renal): > 100 µM

— PubChem BioAssay (NCI)
